Laboratory results as given in PubChem BioAssay (NCI).
Where “and” joins values, the source holds several entries; their conditions need not be identical. Identical values can stand only once.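 Values below derive from 48-hour exposures of cells grown in 96-well plates, with endpoints linearly interpolated between the two concentrations bracketing the appropriate inhibition level. GI50 = concentration required for 50% inhibition of growth. At the TGI there is no net growth.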

What was measured:
Experiment in all cases: DTP human tumour cell line panel, 48 h
BT-549 breast = system: BT-549 breast
CAKI-1 renal = system: CAKI-1 renal
CCRF-CEM leukemia = system: CCRF-CEM leukemia
LOX IMVI melanoma = system: LOX IMVI melanoma
M14 melanoma = system: M14 melanoma
MALME-3M melanoma = system: MALME-3M melanoma
RXF 393 renal = system: RXF 393 renal
SK-MEL-5 melanoma = system: SK-MEL-5 melanoma
SNB-19 CNS = system: SNB-19 CNS
U251 CNS = system: U251 CNS

SMILES	TGI (BT-549 breast)	GI50 (CAKI-1 renal) [µM]	TGI (CAKI-1 renal)	GI50 (CCRF-CEM leukemia) [µM]	TGI (CCRF-CEM leukemia)	GI50 (LOX IMVI melanoma) [µM]	TGI (LOX IMVI melanoma)	GI50 (M14 melanoma) [µM]	TGI (M14 melanoma)	GI50 (MALME-3M melanoma) [µM]	TGI (MALME-3M melanoma)	GI50 (RXF 393 renal) [µM]	TGI (RXF 393 renal)	GI50 (SK-MEL-5 melanoma) [µM]	TGI (SK-MEL-5 melanoma)	GI50 (SNB-19 CNS) [µM]	TGI (SNB-19 CNS)	GI50 (U251 CNS) [µM]	TGI (U251 CNS) [µM]	GI50 (BT-549 breast) [µM]
CC1=C/C(O)CC(=O)Cc2nc(co2)C(=O)N2CCC=C2C(=O)OC(C(C)C)C(C)/C=C\C(=O)NC/C=C\1 (stereo not given)	> 47.9 µM and 51.6 µM	44.4	> 84.1 µM and 70.1 µM	7.35	> 100 µM and 81.9 µM	12.9	34.7 µM and 36.1 µM	23	> 100 µM and 42.3 µM	23.1	> 65.9 µM and 25.2 µM	27.8	> 100 µM	10.3	29.3 µM and > 100 µM	18.1	40.3 µM and > 100 µM	24.8	> 100	
C=C1[C@@H](O)C[C@H]2C(C)(C)C[C@H](Cl)C[C@]2(C)[C@H]1C[C@H](O)[C@H]1CC(=O)NC1=O	0.155 µM	0.0418	1.59 µM	< 0.01		< 0.0445	0.442 µM	< 0.0119	0.0492 µM	< 0.01	0.0632 µM	0.0132	0.0722 µM	< 0.0134	0.0363 µM	< 0.01	0.241 µM	< 0.01	0.108	0.0265
CNC12C3C4C1C1C2C3C41C(=O)N[C@H](C(=O)N(C)[C@H](C[C@@H](OC(C)=O)c1nc(C(=O)N[C@@H](Cc2ccccc2)C[C@H](C)C(=O)OC)cs1)C(C)C)C1CC1 (stereo not given in full)	0.745 µM	2.73	> 15 µM	0.318	3.02 µM	0.234	> 15 µM	0.294		0.504	> 15 µM	0.213	1.33 µM	0.155	1.41 µM	0.679	> 15 µM	0.587	> 15	0.123
Cc1ccc(NC(=O)N2CCCCC2)cc1[N+](=O)[O-]	> 100 µM	> 100	> 100 µM	> 100	> 100 µM	> 100	> 100 µM	> 100	> 100 µM	> 100	> 100 µM	> 100	> 100 µM	> 100	> 100 µM	> 100	> 100 µM	> 100	> 100	> 100
CCCC(=O)O[C@]1(C)CC[C@@H]2[C@H]3[C@@H]1[C@@H]1C/C(C)=C\CC[C@](C)(OC(=O)[C@@H]2C)[C@H]3O1	> 100 µM	31.7	> 100 µM	8.89	26 µM	24.6	59.9 µM	32.5	> 100 µM	61.1	> 100 µM	> 100	> 100 µM	13.4	33.1 µM	> 100	> 100 µM	41.8	> 100	61.9
OCc1ncc(-c2ccccc2)s1	> 100 µM	> 100	> 100 µM	> 100	> 100 µM	> 100	> 100 µM	> 100	> 100 µM	> 100	> 100 µM	> 100	> 100 µM	> 100	> 100 µM	> 100	> 100 µM	> 100	> 100	> 100
Clc1ccc(N/N=C(\c2ccccc2)c2ccccn2)nc1	25 µM and 29.5 µM	0.172	2.3 µM and 16.7 µM	0.0454		0.246	4.48 µM	0.0879	14.4 µM and 16.1 µM	0.0904	72.2 µM and 25.7 µM	0.275	7.38 µM and 28.5 µM	0.32		0.466	> 100 µM	0.344	> 68	0.474
CN(C)CCCN1c2ccc(O)cc2Sc2ccc(Cl)cc21	25.2 µM		16 µM		22.2 µM		20.2 µM		19.7 µM		24 µM		32.6 µM		28.2 µM		27.6 µM		21.6	
N=C1N=C(N)S/C1=C\c1ccc2ncccc2c1	> 25 µM	> 25	> 25 µM	> 25	> 25 µM	> 25	> 25 µM	> 25	> 25 µM	> 25	> 25 µM	> 25	> 25 µM	> 25	> 25 µM	> 25	> 25 µM	> 25	> 25	> 25
O=C(Nc1nc(-c2ccccc2)cs1)c1cc(O)c(O)c(O)c1	31.4 µM	1.42	16.6 µM	0.687	10.5 µM	3.62	32.1 µM	7.9	44 µM	8.86	71.1 µM	3.55	19.7 µM	3.6	20.7 µM	2.61	> 100 µM	2.88	21	3.46
Cc1ccc(N(/C=C/C(=O)C(F)(F)F)CC(=O)c2ccc(Cl)c(Cl)c2)cc1	11.2 µM	12.4	24.9 µM	4.89	20.8 µM	10.1	21.8 µM	4.79	18.6 µM	6	20.6 µM	3.82	19 µM	5.64	19.6 µM	12.9	25.5 µM	10.7	22.6	2.22
C[C@@H]1CC[C@@H]2[C@@H]1[C@H](OC(=O)c1ccc3ccccc3c1)[C@]1(C3CCCCC3)C[C@@H](OC(=O)CO)[C@@]2(C)O1	1.56 µM	0.0391	10.9 µM	5.36	23.6 µM	13.1	28.1 µM	13.2	30.2 µM	16.5	32.3 µM	0.0702	8.25 µM	14	27.4 µM	14.6	28.8 µM	10.9	23	0.0714
